The subject of the assay is malignant plasma cells. The assay can be described thus: bone marrow aspirates from multiple myeloma patients cultured in r-Bone and treated with pomalidomide. The format is cell-based, human. The conditions noted are these: patient bone marrow (n=10) in r-Bone, FIG. 4. Here is the method: This example tested bone marrow aspirated from patients with multiple myeloma (n=10) were cultured in r-Bone system and treated with pomalidomide.

The structures appear in SMILES notation.

`Nc1cccc2c1C(=O)N(C1CCC(=O)NC1=O)C2=O` (stereo not shown) [pomalidomide, Pomalidomide]: the “elimination of malignant plasma cells” value is reported as “eliminated malignant plasma cells in a dose dependent manner”.

(Values after patent US20190169562A1, “SCREENING OF IMMUNO-MODULATORY THERAPIES” (zPredicta, Inc., priority 2016, published 2019).)
